From US20230277534A1 (Plexxikon Inc., priority 2011, published 2023)

Assays:
[1] = target: B-Raf V600E (Homo sapiens (Human), UniProt P15056, V600E); assay: B-Raf V600E kinase biochemical activity assay (AlphaScreen, biotin-MEK1 substrate); settings: 100 μM ATP
How it was run: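 IC50 was derived from AlphaScreen signal (anti-phospho-MEK1/2 antibody with streptavidin donor and Protein A acceptor beads, 3 h) across 8 compound concentrations. The kinase step ran 45 min at room temperature: 0.1 ng B-Raf V600E, 100 nM biotin-MEK1, 100 μM final ATP, pH 7.0 HEPES with MgCl2/MnCl2.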

[2] = system: COLO205 colon adenocarcinoma cells (B-Raf V600E mutation); assay: COLO205 cell growth inhibition (ATPlite); format: cell-based; settings: Homo sapiens, COLO 205, 72 h, 3 days
How it was run: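 Cells treated for 3 days at 37 °C, 5% CO2 with an 8-point 1:3 dilution series, top final concentration 10 μM, DMSO control. ATPlite luminescence used as a measure of cell number; IC50 from reading versus concentration.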

Chain of B-Raf V600E (P15056 whole entry V600E): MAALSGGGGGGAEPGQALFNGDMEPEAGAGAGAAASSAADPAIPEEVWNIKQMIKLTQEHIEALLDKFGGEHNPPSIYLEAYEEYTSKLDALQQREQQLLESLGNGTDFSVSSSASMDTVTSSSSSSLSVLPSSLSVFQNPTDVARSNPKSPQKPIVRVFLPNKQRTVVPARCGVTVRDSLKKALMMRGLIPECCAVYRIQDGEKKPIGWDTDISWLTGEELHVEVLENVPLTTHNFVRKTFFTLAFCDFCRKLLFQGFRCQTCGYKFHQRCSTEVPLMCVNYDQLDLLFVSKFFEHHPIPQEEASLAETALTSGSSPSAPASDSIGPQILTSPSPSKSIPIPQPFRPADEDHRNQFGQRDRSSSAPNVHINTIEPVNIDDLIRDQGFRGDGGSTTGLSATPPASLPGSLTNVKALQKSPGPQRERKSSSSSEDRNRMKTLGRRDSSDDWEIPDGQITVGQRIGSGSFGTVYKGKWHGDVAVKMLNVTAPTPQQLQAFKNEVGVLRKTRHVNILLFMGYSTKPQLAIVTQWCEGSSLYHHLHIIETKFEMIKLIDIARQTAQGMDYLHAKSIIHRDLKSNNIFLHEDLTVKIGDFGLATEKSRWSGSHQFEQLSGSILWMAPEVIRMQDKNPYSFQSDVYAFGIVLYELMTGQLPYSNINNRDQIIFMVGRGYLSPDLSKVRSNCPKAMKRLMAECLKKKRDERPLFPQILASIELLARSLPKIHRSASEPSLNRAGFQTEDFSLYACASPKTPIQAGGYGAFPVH

SMILES | IC50 [1] | IC50 [2]
CCC(C)S(=O)(=O)Nc1cccc(C(=O)c2c[nH]c3ncc(-c4cnc(N5CCOCC5)nc4)cc23)c1F (stereo not shown) [Compound P-0236, N-[2-fluoro-3-[5-(2-morpholinopyrimidin-5-yl)-1H-pyrrolo[2,3-b]pyridine-3-carbonyl]phenyl]butane-2-sulfonamide] | < 0.1 µM | < 1 µM
CN(C)S(=O)(=O)Nc1ccc(F)c(C(=O)c2c[nH]c3ncc(-c4cnc(C5CC5)nc4)cc23)c1F [Compound P-0238, 5-(2-cyclopropylpyrimidin-5-yl)-3-[3-(dimethylsulfamoylamino)-2,6-difluoro-benzoyl]-1H-pyrrolo[2,3-b]pyridine] | < 0.1 µM | < 1 µM
CCN(C)S(=O)(=O)Nc1ccc(F)c(C(=O)c2c[nH]c3ncc(-c4cnc(C5CC5)nc4)cc23)c1F [Compound P-0240, 5-(2-cyclopropylpyrimidin-5-yl)-3-[3-[[ethyl(methyl)sulfamoyl]amino]-2,6-difluoro-benzoyl]-1H-pyrrolo[2,3-b]pyridine] | < 0.1 µM | < 1 µM
O=C(c1c(F)ccc(NS(=O)(=O)N2CCCC2)c1F)c1c[nH]c2ncc(-c3cnc(C4CC4)nc3)cc12 [Compound P-0241, N-[3-[5-(2-cyclopropylpyrimidin-5-yl)-1H-pyrrolo[2,3-b]pyridine-3-carbonyl]-2,4-difluoro-phenyl]pyrrolidine-1-sulfonamide] | < 0.1 µM | < 1 µM
CCCNS(=O)(=O)Nc1cccc(C(=O)c2c[nH]c3ncc(-c4cnn(C)c4)cc23)c1F [Compound P-0242, [2-fluoro-3-(propylsulfamoylamino)phenyl]-[5-(1-methylpyrazol-4-yl)-1H-pyrrolo[2,3-b]pyridin-3-yl]methanone] | < 0.1 µM | > 1 µM
O=C(c1cccc(NS(=O)(=O)N2CCCC2)c1F)c1c[nH]c2ncc(-c3ccc(C4(C(=O)O)CC4)cc3)cc12 [Compound P-0243, 1-[4-[3-[2-fluoro-3-(pyrrolidin-1-ylsulfonylamino)benzoyl]-1H-pyrrolo[2,3-b]pyridin-5-yl]phenyl]cyclopropanecarboxylic acid] | < 0.1 µM | > 1 µM
CC1(C)CCN(S(=O)(=O)Nc2cccc(C(=O)c3c[nH]c4ncc(-c5cnc(C6CC6)nc5)cc34)c2F)C1 [Compound P-0246, N-[3-[5-(2-cyclopropylpyrimidin-5-yl)-1H-pyrrolo[2,3-b]pyridine-3-carbonyl]-2-fluoro-phenyl]-3,3-dimethyl-pyrrolidine-1-sulfonamide] | < 0.1 µM | > 1 µM
CC1CCN(S(=O)(=O)Nc2cccc(C(=O)c3c[nH]c4ncc(-c5cnc(C6CC6)nc5)cc34)c2F)C1 (stereo not shown) [Compound P-0247, N-[3-[5-(2-cyclopropylpyrimidin-5-yl)-1H-pyrrolo[2,3-b]pyridine-3-carbonyl]-2-fluoro-phenyl]-3-methyl-pyrrolidine-1-sulfonamide] | < 0.1 µM | < 1 µM
CN(C1CC1)S(=O)(=O)Nc1cccc(C(=O)c2c[nH]c3ncc(-c4cnc(C5CC5)nc4)cc23)c1F [Compound P-0249, 3-[3-[[cyclopropyl(methyl)sulfamoyl]amino]-2-fluoro-benzoyl]-5-(2-cyclopropylpyrimidin-5-yl)-1H-pyrrolo[2,3-b]pyridine] | < 0.1 µM | < 1 µM
CCCNS(=O)(=O)Nc1cccc(C(=O)c2c[nH]c3ncc(-c4cnc(C5CC5)nc4)cc23)c1F [Compound P-0251, [5-(2-cyclopropylpyrimidin-5-yl)-1H-pyrrolo[2,3-b]pyridin-3-yl]-[2-fluoro-3-(propylsulfamoylamino)phenyl]methanone] | < 0.1 µM | > 1 µM
CN(C1CC1)S(=O)(=O)Nc1ccc(F)c(C(=O)c2c[nH]c3ncc(-c4cnc(C5CC5)nc4)cc23)c1F [Compound P-0252, 3-[3-[[cyclopropyl(methyl)sulfamoyl]amino]-2,6-difluoro-benzoyl]-5-(2-cyclopropylpyrimidin-5-yl)-1H-pyrrolo[2,3-b]pyridine] | < 0.1 µM | < 1 µM
NC(=O)C1(c2ccc(-c3cnc4[nH]cc(C(=O)c5cccc(NS(=O)(=O)N6CCCC6)c5F)c4c3)cc2)CC1 [Compound P-0253, 1-[4-[3-[2-fluoro-3-(pyrrolidin-1-ylsulfonylamino)benzoyl]-1H-pyrrolo[2,3-b]pyridin-5-yl]phenyl]cyclopropanecarboxamide] | < 0.1 µM | > 1 µM
CCOc1ncc(-c2cnc3[nH]cc(C(=O)c4c(F)ccc(NS(=O)(=O)N(C)CC)c4F)c3c2)cn1 [Compound P-0256, 5-(2-ethoxypyrimidin-5-yl)-3-[3-[[ethyl(methyl)sulfamoyl]amino]-2,6-difluoro-benzoyl]-1H-pyrrolo[2,3-b]pyridine] | < 0.1 µM | < 1 µM
CCN(C)S(=O)(=O)Nc1ccc(F)c(C(=O)c2c[nH]c3ncc(-c4cnc(N5CCOCC5)nc4)cc23)c1F [Compound P-0258, 4-[5-[3-[3-[[ethyl(methyl)sulfamoyl]amino]-2,6-difluoro-benzoyl]-1H-pyrrolo[2,3-b]pyridin-5-yl]pyrimidin-2-yl]morpholine] | < 0.1 µM | < 1 µM
CCN(C)S(=O)(=O)Nc1ccc(F)c(C(=O)c2c[nH]c3ncc(-c4cccc(N5CCOCC5)c4)cc23)c1F [Compound P-0259, 4-[3-[3-[3-[[ethyl(methyl)sulfamoyl]amino]-2,6-difluoro-benzoyl]-1H-pyrrolo[2,3-b]pyridin-5-yl]phenyl]morpholine] | < 0.1 µM | < 1 µM
CN1CCN(c2ncc(-c3cnc4[nH]cc(C(=O)c5c(F)ccc(NS(=O)(=O)N6CCCC6)c5F)c4c3)cn2)CC1 [Compound P-0260, N-[2,4-difluoro-3-[5-[2-(4-methylpiperazin-1-yl)pyrimidin-5-yl]-1H-pyrrolo[2,3-b]pyridine-3-carbonyl]phenyl]pyrrolidine-1-sulfonamide] | < 0.1 µM | < 1 µM

The next lines start with the values.

IC50 [1] | IC50 [2] | SMILES
< 0.1 µM | < 1 µM | O=C(c1c(F)ccc(NS(=O)(=O)N2CCCC2)c1F)c1c[nH]c2ncc(-c3cnc(N4CCNCC4)nc3)cc12 [Compound P-0261, N-[2,4-difluoro-3-[5-(2-piperazin-1-ylpyrimidin-5-yl)-1H-pyrrolo[2,3-b]pyridine-3-carbonyl]phenyl]pyrrolidine-1-sulfonamide]
< 0.1 µM | < 1 µM | O=C(c1c(F)ccc(NS(=O)(=O)N2CCCC2)c1F)c1c[nH]c2ncc(-c3cnc(N4CCC(O)CC4)nc3)cc12 [Compound P-0262, N-[2,4-difluoro-3-[5-[2-(4-hydroxy-1-piperidyl)pyrimidin-5-yl]-1H-pyrrolo[2,3-b]pyridine-3-carbonyl]phenyl]pyrrolidine-1-sulfonamide]
< 0.1 µM | < 1 µM | CCN(C)S(=O)(=O)Nc1ccc(F)c(C(=O)c2c[nH]c3ncc(-c4cnc(N5CCN(C)CC5)nc4)cc23)c1F [Compound P-0263, 3-[3-[[ethyl(methyl)sulfamoyl]amino]-2,6-difluoro-benzoyl]-5-[2-(4-methylpiperazin-1-yl)pyrimidin-5-yl]-1H-pyrrolo[2,3-b]pyridine]
< 0.1 µM | < 1 µM | CCN(C)S(=O)(=O)Nc1ccc(F)c(C(=O)c2c[nH]c3ncc(-c4cnc(N5CCNCC5)nc4)cc23)c1F [Compound P-0268, 3-[3-[[ethyl(methyl)sulfamoyl]amino]-2,6-difluoro-benzoyl]-5-(2-piperazin-1-ylpyrimidin-5-yl)-1H-pyrrolo[2,3-b]pyridine]
< 0.1 µM | < 1 µM | O=C(c1c(F)ccc(NS(=O)(=O)N2CCCC2)c1F)c1c[nH]c2ncc(-c3cnc(N4CCC4)nc3)cc12 [Compound P-0269, N-[3-[5-[2-(azetidin-1-yl)pyrimidin-5-yl]-1H-pyrrolo[2,3-b]pyridine-3-carbonyl]-2,4-difluoro-phenyl]pyrrolidine-1-sulfonamide]
< 0.1 µM | < 1 µM | C[C@@H]1CCN(S(=O)(=O)Nc2cccc(C(=O)c3c[nH]c4ncc(-c5cnc(C6CC6)nc5)cc34)c2F)C1 [Compound P-0271, (3R)—N-[3-[5-(2-cyclopropylpyrimidin-5-yl)-1H-pyrrolo[2,3-b]pyridine-3-carbonyl]-2-fluoro-phenyl]-3-methyl-pyrrolidine-1-sulfonamide]
< 0.1 µM | > 1 µM | O=C(c1cccc(NS(=O)(=O)N2CCCC2)c1F)c1c[nH]c2ncc(C3CC3)cc12 [Compound P-0274, N-[3-(5-cyclopropyl-1H-pyrrolo[2,3-b]pyridine-3-carbonyl)-2-fluoro-phenyl]pyrrolidine-1-sulfonamide]
< 0.1 µM | < 1 µM | CCN(C)S(=O)(=O)Nc1ccc(F)c(C(=O)c2c[nH]c3ncc(-c4cnc(N5CCC(O)CC5)nc4)cc23)c1F [Compound P-0275, 3-[3-[[ethyl(methyl)sulfamoyl]amino]-2,6-difluoro-benzoyl]-5-[2-(4-hydroxy-1-piperidyl)pyrimidin-5-yl]-1H-pyrrolo[2,3-b]pyridine]
< 0.1 µM | > 1 µM | CCN(C)S(=O)(=O)Nc1ccc(F)c(C(=O)c2c[nH]c3ncc(-c4cccc(C5(C#N)CC5)c4)cc23)c1F [Compound P-0276, 5-[3-(1-cyanocyclopropyl)phenyl]-3-[3-[[ethyl(methyl)sulfamoyl]amino]-2,6-difluoro-benzoyl]-1H-pyrrolo[2,3-b]pyridine]
> 0.1 µM | < 1 µM | CCN(C)S(=O)(=O)Nc1ccc(F)c(C(=O)c2c[nH]c3ncc(-c4cnc(N5CCC5)nc4)cc23)c1F [Compound P-0277, 5-[2-(azetidin-1-yl)pyrimidin-5-yl]-3-[3-[[ethyl(methyl)sulfamoyl]amino]-2,6-difluoro-benzoyl]-1H-pyrrolo[2,3-b]pyridine]
